From PMC12208134, “Structure-activity relationships of 1,5-dihydro-2H-benzo[b][1,4]diazepine-2,4(3H)-diones as inhibitors of Trypanosoma cruzi” (RSC medicinal chemistry, 2025)
Values after ≈ are worked out from the molar mass of the structure shown. Values joined by “and” are separate entries in the source; they are usually repeats but may differ in a detail not shown here. Equal values may be shown once. Read-outs that look alike come from different tables or passages of the source.

What was measured:
[1] = test system: T. cruzi trypomastigotes; set-up: method as in PMID 30001347; conditions: cited from earlier work
[2] = Human liver microsomal intrinsic clearance; format: in vitro ADME
[3] = ChromLogD pH7.4 (chromatographic hydrophobicity index), PFI, LLE; conditions: for PFI: ChromLogDpH7.4 + no. aromatic rings; for chromatographic logD: pH 7.4
Text: [23] Alongside PFI, LLE (ligand lipophilic efficiency, T. cruzi pIC50 - ChromLogDpH7.4) was also monitored to identify changes where the impact on potency was not driven by increasing lipophilicity.

[4] = Kinetic aqueous solubility by CAD; format: physicochemical; conditions: kinetic from dmso stock
[5] = test system: intracellular T. cruzi; assay: T. cruzi washout assay; format: cell-based, Trypanosoma cruzi; conditions: 25 x IC50 for 16 days, infected Vero cells
Experimental: For any hits identified and successfully triaged, the initial focus of hit-expansion is to identify compounds with a suitable profile to run in a washout assay.,[21] In this assay, intracellular T. cruzi are treated with high doses of compounds for an extended duration (25x IC50 for 8 – 16 days), followed by compound washout and assessment of parasite relapse over 60 days to assess ability to clear all parasites, including any persisters. […] Compound series with a profile equal to or better than benznidazole can then be progressed to an in vivo efficacy model of chronic Chagas disease with a high probability of success.
At this stage, we were keen to examine our options for progression into the T. cruzi washout assay, [12],[21] and decided to move forward with 2, 14 and 16 to give coverage across both chemotypes. […] After this dosing period, the compound was washed off the infected cells, and the host cell monolayer was monitored for egressed parasites. The first day egressed parasites were detected post washout was noted down as the relapse day. In this assay, posaconazole, which is known to be ineffective in the clinic, relapsed after 10 days and benznidazole, used as the bench-mark clinical compound, relapsed after 31 / 35 days (2 replicates). We were therefore looking for compounds that relapsed at an equivalent time to benznidazole, or later, to be considered worth pursuing further.
Intracellular T. cruzi washout assays were carried out with the Silvio X10/7 strain using the protocol previously described. ^1

[6] = test system: intracellular T. cruzi amastigotes; assay: T. cruzi intracellular potency assay (high content imaging); format: cell-based, Trypanosoma cruzi; set-up: key to Max Effect (T. cruzi): % inhibition; 0% = DMSO control, 100% = 16 μM nifurtimox control; conditions: for Emax: read-out: Max Effect (T. cruzi); for IC50: intracellular amastigotes in Vero cells, 96 h, mean of N ≥ 3, read-out: T. cruzi pIC50 (converted)
Experimental: (§1) T. cruzi intracellular potency and rate-of-kill assay (high content imaging) ^1
(§2) Silvio X10/7 T. cruzi trypomastigotes were incubated at 37°C 5% CO2 with 1.6×10^7 Vero cells overnight at MOI10 in MEM media supplemented with 10% foetal calf serum (FCS). Extracellular parasites were removed by aspirating cell culture supernatant, and washing Vero monolayer with 10 ml serum-free MEM three times. Vero cells were then harvested by trypsinization and dispensed at 2×10^3 per well (50 μl in MEM/ 1% FCS) into 384 well plates pre-stamped with compounds in DMSO using automated washer/ dispenser EL406 and liquid handling software (Biotek). Plates were then incubated at 37°C in 5% CO2 for 96 h. For rate-of-kill determination, plates were incubated for 24h, 48h, 72h and 96h.
(§3) Plates were subsequently fixed with 4% formaldehyde for 20 min, permeabilised and stained with 5 μgml^-1 Hoechst 33342/ 0.1% Triton/ PBS Thimerosal 20 min. Automated imaging was performed by an Operetta high content imaging system using 20x objective (PerkinElmer). Images were analysed with an algorithm generated in Columbus (PerkinElmer) to segment Vero cell nuclei, Vero cell cytoplasm and parasite nuclei/ kinetoplasts, reporting number of amastigotes per Vero cell, percent infected Vero cells and total number of Vero cells. Compound potencies against T. cruzi parasites were calculated in IDBS Activitybase using percent infected Vero cells and Vero toxicity curves generated using number of host cells. All data was normalised to percent inhibition based on the raw data values for the 100% effect control (16 μM nifurtimox) and the 0% effect control (DMSO) on each plate at each time point. Curve fitting was carried out using a four-parameter equation as previously described. ^2 For rate-of-kill experiments the percent infected cells at each compound concentration was plotted against time.

[7] = test system: host Vero cell; assay: Vero host cell toxicity in the intracellular T. cruzi assay; format: cell-based; set-up: key to Max Effect (Vero): % inhibition; 0% = DMSO control, 100% = 16 μM nifurtimox control; conditions: for EC50 / IC50: Chlorocebus sabaeus; for EC50: Vero; for EC50 / Max Effect (Vero): individual replicate; for IC50: host Vero cell, read-out: Vero pIC50 (converted)
Experimental: as §1, §2, §3

[8] = Mouse liver microsomal intrinsic clearance; format: in vitro ADME
[9] = target: Tc-CYP51 (Trypanosoma cruzi, UniProt Q7Z1V1); assay: T. cruzi sterol 14α-demethylase (CYP51) enzyme assay; format: biochemical
Experimental: T. cruzi sterol 14α-demethylase (CYP51) enzyme assay
Potency against T. cruzi CYP51 was determined using a previously described fluorescence assay. Average potency for compound 1 was determined with three experimental replicates. Potencies in Fig.3 are from single experimental replicates. ^5

[10] = Trypanosoma cruzi, individual replicate

Sequence of Tc-CYP51 (Q7Z1V1 whole entry): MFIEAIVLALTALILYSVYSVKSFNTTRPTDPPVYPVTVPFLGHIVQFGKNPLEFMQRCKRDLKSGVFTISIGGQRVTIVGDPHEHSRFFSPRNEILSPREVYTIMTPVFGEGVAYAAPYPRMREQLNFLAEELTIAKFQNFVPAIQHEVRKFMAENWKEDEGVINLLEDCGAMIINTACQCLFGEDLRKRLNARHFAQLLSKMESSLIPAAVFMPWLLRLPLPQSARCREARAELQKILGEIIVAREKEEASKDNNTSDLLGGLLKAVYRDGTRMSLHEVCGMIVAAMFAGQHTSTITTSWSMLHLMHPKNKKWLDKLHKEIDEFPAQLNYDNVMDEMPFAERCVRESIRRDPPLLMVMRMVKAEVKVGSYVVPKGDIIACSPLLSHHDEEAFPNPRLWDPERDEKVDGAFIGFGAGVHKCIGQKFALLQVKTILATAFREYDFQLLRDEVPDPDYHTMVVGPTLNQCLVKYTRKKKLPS

SMILES	activity against trypomastigotes [1]	PFI [3]	chromatographic logD [3]	relapse day post washout [5]	Emax [6, 10]	IC50 ([6]; Trypanosoma cruzi)	Hill slope (T. cruzi) ([6]; individual replicate)	Max Effect (T. cruzi) ([6]; individual replicate)	pEC50 (T. cruzi) ([6]; individual replicate)	EC50 [7]	IC50 [7]	Max Effect (Vero) [7]	further results
CC1CS(=O)(=O)CCN1/N=C/c1ccc([N+](=O)[O-])o1 (stereo not drawn) [nifurtimox]	good activity												
COc1ccc(NC(=O)NC2C(=O)Nc3ccccc3N(c3ccccc3)C2=O)cc1 (stereo not drawn) [Compound 2, 1-(2,4-dioxo-1-phenyl-2,3,4,5-tetrahydro-1H-benzo[b][1,4]diazepin-3-yl)-3-(4-methoxyphenyl)urea]		7.0	4	10 days	89%	1.26 µM	2.1 and 3.4 and 3.0 and 9.3 and 1.5 and 2.5 and 0.659	99 and 83 and 84 and 94 and 93 and 92 and 88	5.8 and 5.7 and 6.3 and 5.9	> 50.1 µM	> 50.1 µM	26 and 22 and 25 and -6 and 27 and 29 and 1.42 and 36	HLM CLi ([2]; human liver microsomes): <0.4 mL/min/g; solubility ([4]; kinetic, CAD, read-out: Aqueous solubility): 64 µM (≈ 26.7 µg/mL); MLM CLi ([8]; mouse liver microsomes): <0.5 mL/min/g; Tc CYP51 Hill ([9]; individual replicate): 1.1; Emax ([9]; individual replicate, read-out: Tc CYP51 Max Effect): 95%; IC50 ([9]; individual replicate, read-out: Tc CYP51 pIC50 (converted)): 7.94 µM; fold more potent against the parasites than against Tc-CYP51 ([9]; urea series): 10 fold
COc1ccc(CN2C(=O)C(N)C(=O)N(c3ccc(OC)cc3)c3ccccc32)cc1 (stereo not drawn) [Compound 16, 3-amino-1-(4-methoxybenzyl)-5-(4-methoxyphenyl)-1,5-dihydro-2H-benzo[b][1,4]diazepine-2,4(3H)-dione]		7.2	4.2	6 days	86%	0.316 µM	3.7 and 4.5 and 5.7 and 13.7	81 and 84 and 91	6.6	> 50.1 µM	> 50.1 µM	21 and 44 and 30 and 5.55	HLM CLi ([2]; human, microsomes): <0.4 mL/min/g; solubility [4]: > 270 µM; EC50 ([6]; Trypanosoma cruzi, individual replicate, read-out: pEC50 (T. cruzi) (converted)): 0.316 µM; MLM CLi ([8]; mouse, microsomes): 7.6 mL/min/g
O=C(Cn1ccnc1[N+](=O)[O-])NCc1ccccc1 [benznidazole, reference compound]	good activity			31 days and 35 days									
